Values joined by “and” are separate entries in the source; they are usually repeats but may differ in a detail not shown here. Equal values may be shown once.
Columns and labels:
[1] = molecular target: T1, human endothelial lipase (EL) (Homo sapiens, UniProt Q9Y5X9); assay: Endothelial Lipase Assay, cell surface lipase activity (human); format: cell-based; settings: cells expressing human EL, PLA1 substrate 10 μM, fluorescence reaction rate; several values in a cell are repeat determinations
T1 construct: host or cells: cells expressing human endothelial lipase
T1 sequence (Q9Y5X9 21-500): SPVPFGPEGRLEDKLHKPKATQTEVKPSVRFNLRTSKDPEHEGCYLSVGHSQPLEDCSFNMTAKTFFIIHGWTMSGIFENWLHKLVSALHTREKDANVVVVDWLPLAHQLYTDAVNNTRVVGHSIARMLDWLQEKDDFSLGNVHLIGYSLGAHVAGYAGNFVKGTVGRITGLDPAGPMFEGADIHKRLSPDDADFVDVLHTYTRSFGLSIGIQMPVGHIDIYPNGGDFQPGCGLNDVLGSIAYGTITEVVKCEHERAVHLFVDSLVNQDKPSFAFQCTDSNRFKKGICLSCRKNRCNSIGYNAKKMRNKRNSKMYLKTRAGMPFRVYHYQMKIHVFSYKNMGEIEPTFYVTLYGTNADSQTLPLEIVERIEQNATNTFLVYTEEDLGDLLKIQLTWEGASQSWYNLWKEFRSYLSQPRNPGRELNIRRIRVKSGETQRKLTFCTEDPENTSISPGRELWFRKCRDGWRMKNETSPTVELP
Protocol: (§1) Endothelial Lipase Assay (Human/Mouse)
(§2) To assay for cell surface lipase activity, cells expressing human endothelial lipase (EL) or LPL were plated in CellBIND® 384-well plates (Corning, Lowell, Mass.) in 25 μL serum free medium at a density of 2000 cells/well. After 18-24 hours incubation at 37° C., the medium was removed and replaced with 15 μL assay buffer [Hank's Buffered Saline Solution with 25 mM HEPES pH 7.2] and 15 μL PLA1 for a final concentration of 10 μM using a Multidrop reagent dispenser. Fluorescence signal was monitored for 30 min at 37° C. on a Safire II plate reader in kinetic mode (60 cycles, kinetic interval: 30 seconds) with an excitation wavelength of 490 nm and an emission wavelength of 515 nm. Linear regression of the fluorescence intensity collected from 480 to 1500 seconds was used to calculate the reaction rate (the slope) and the slopes were used to calculate IC50 values where appropriate. The amount of BODIPY-labeled product generated was calculated at the 30 min time point as determined from standard curve analysis of purified BODIPY FL C5. In all studies using the inhibitor Ebelactone B, consistent results were obtained when it was dissolved as a stock in DMSO, immediately before use.

Mouse EL = molecular target: T2, Mouse EL (Mus musculus, UniProt Q9WVG5); assay: Endothelial Lipase Assay, cell surface lipase activity (mouse); format: cell-based; settings: PLA1 substrate 10 μM, fluorescence reaction rate, several values in a cell are repeat determinations
T2 construct: host or cells: not described for mouse EL
T2 sequence (Q9WVG5 21-500): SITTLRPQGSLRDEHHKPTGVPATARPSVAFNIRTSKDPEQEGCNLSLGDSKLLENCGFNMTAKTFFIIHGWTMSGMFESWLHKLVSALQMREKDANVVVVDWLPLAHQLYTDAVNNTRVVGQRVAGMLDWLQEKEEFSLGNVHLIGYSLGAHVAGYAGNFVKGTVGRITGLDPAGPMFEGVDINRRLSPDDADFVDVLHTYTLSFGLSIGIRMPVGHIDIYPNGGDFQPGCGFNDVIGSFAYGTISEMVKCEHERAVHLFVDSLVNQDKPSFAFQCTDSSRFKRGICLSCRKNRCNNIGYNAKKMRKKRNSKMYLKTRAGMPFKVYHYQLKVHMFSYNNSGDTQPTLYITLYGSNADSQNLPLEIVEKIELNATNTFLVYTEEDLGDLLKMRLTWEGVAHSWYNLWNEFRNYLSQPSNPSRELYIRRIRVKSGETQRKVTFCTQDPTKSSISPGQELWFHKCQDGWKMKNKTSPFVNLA
Protocol: as §1, §2

Compound | IC50 [1] | IC50 (Mouse EL)
NC(=O)c1cncc(CCCCCCC(=O)C(=O)NCc2nnc(-c3ccc(Oc4ccccc4)cc3)o2)c1 [Compound 142] | 1580 nM | 897 nM
COC(=O)c1cccc(COc2ccc(-c3nnc(CNC(=O)C(=O)CCCCCCc4ccccc4)s3)cc2)c1 [Compound 137] | 93 nM | 37 nM
Cc1ccc(-c2nnc(CNC(=O)C(=O)CCCCCc3ccccc3)o2)cc1 [Compound 35] | 1130 nM | 994 nM
O=C(CCCCCOc1ccccc1)C(=O)NCc1nnc(-c2ccc3ccccc3c2)o1 [Compound 48] | 1960 nM | 1710 nM
O=C(CCCCCc1ccc(F)cc1)C(=O)NCc1nnc(-c2ccc3ccccc3c2)o1 [Compound 38] | 613 nM | 475 nM
O=C(CCCCCOc1cccc(F)c1)C(=O)NCc1nnc(-c2ccc(Oc3ccccc3)cc2)o1 [Compound 55] | 340 nM | 384 nM
CN(C)c1ccc(-c2nnc(CNC(=O)C(=O)CCCCCCc3ccccc3)o2)cc1 [Compound 24] | 16600 nM | 20700 nM
O=C(CCCCCc1ccc(-c2ccccc2)cc1)C(=O)NCc1nnc(-c2ccc3ccccc3c2)o1 [Compound 36] | 10200 nM | 6600 nM
COC(=O)c1ccc(COc2ccc(-c3nnc(CNC(=O)C(=O)CCCCCCc4ccccc4)s3)cc2)o1 [Compound 141] | 101 nM | 45 nM
CC(C)(C)OC(=O)N(Cc1ccccc1)c1ccc(-c2nnc(CNC(=O)C(=O)CCCCCCc3ccccc3)o2)cc1 [Compound 115] | 515 nM | 254 nM
O=C(CCCCCCc1ccccc1)C(=O)NCc1nnc(-c2ccc3ccccc3c2)o1 [Compound 27] | 293 nM and 129 nM | 225 nM and 184 nM
O=C(CCCCCc1ccccc1)C(=O)NCc1nnc(-c2ccc3ccccc3c2)o1 [Compound 34] | 904 nM | 473 nM
O=C(CCCCCCc1ccccc1)C(=O)NCc1nnc(-c2ccc(OCc3ccccc3F)cc2)o1 [Compound 85] | 223 nM | 169 nM
O=C(CCCCCCc1ccccc1)C(=O)NCc1nnc(-c2ccc(OCc3ccccc3)cc2)o1 [Compound 68] | 142 nM | 124 nM
CC(C)(C)OC(=O)N(Cc1cccnc1)c1ccc(-c2nnc(CNC(=O)C(=O)CCCCCCc3ccccc3)o2)cc1 [Compound 123] | 288 nM | 182 nM
O=C(CCCCCNc1cccc(F)n1)C(=O)NCc1nnc(-c2ccccc2)o1 [Compound 171] | 33000 nM | –
N#Cc1cccc(COc2ccc(-c3nnc(CNC(=O)C(=O)CCCCCCc4ccccc4)o3)cc2)c1 [Compound 117] | 78 nM | 50 nM
O=C(CCCCCOc1cccc(Cl)c1)C(=O)NCc1nnc(-c2ccc(OCc3ccccc3)cc2)o1 [Compound 96] | 1300 nM | 666 nM
N#Cc1ccc(CCCCCCC(=O)C(=O)NCc2nnc(-c3ccccc3)o2)cc1 [Compound 44] | 951 nM | 641 nM
Cc1cc(COc2ccc(-c3nnc(CNC(=O)C(=O)CCCCCCc4ccccc4)s3)cc2)ccn1 [Compound 174] | 78 nM | 51 nM
O=C(CCCCCc1ccccc1)C(=O)NCc1nnc(-c2ccccc2)o1 [Compound 33] | 3760 nM | 3350 nM
O=C(CCCCCCc1ccccc1F)C(=O)NCc1nnc(-c2ccccc2)o1 [Compound 51] | 607 nM | 802 nM
O=C(CCCCCCc1ccccc1)C(=O)NCc1nnc(-c2ccc(-c3ccccc3)cc2)o1 [Compound 17] | 3360 nM | 1880 nM
O=C(CCCCCOc1cccc(F)c1)C(=O)NCc1nnc(-c2cccc(Oc3ccccc3)c2)o1 [Compound 56] | 3250 nM | 2290 nM
Cc1ccc(-c2nnc(CNC(=O)C(=O)CCCCCCc3ccccc3)o2)cc1 [Compound 25] | 353 nM and 319 nM and 468 nM | 333 nM and 235 nM and 269 nM
O=C(CCCCCCc1ccccc1)C(=O)NCc1nnc(-c2ccc(NCc3ccccc3)cc2)o1 [Compound 116] | 325 nM | 289 nM

Compound | IC50 [1] | IC50 (Mouse EL)
O=C(CCCCCCc1ccccc1)C(=O)NCc1nnc(-c2ccc(C(F)(F)F)cc2)o1 [Compound 22] | 268 nM and 552 nM | 435 nM and 396 nM
O=C(CCCCCCc1ccncc1)C(=O)NCc1nnc(-c2ccccc2)o1 [Compound 42] | 4650 nM | 2730 nM
CN(C)C(=O)c1cccc(COc2ccc(-c3nnc(CNC(=O)C(=O)CCCCCCc4ccccc4)s3)cc2)c1 [Compound 150] | 92 nM | 48 nM
O=C(CCCCCCc1ccccc1)C(=O)NCc1nnc(-c2cccc(C(F)(F)F)c2)o1 [Compound 21] | 684 nM | 654 nM
O=C(CCCCCCc1ccccc1)C(=O)NCc1nnc(-c2ccc(OCc3cccc(Cl)c3)cc2)o1 [Compound 76] | 3070 nM | 1950 nM
N#Cc1cccc(COc2ccc(-c3nnc(CNC(=O)C(=O)CCCCCCc4ccccc4)s3)cc2)n1 [Compound 163] | 974 nM | 236 nM
O=C(CCCCCCc1ccccc1)C(=O)NCc1nnc(-c2ccccc2)s1 [Compound 74] | 219 nM | 436 nM
O=C(CCCCCCc1ccc2nc(Cl)ccc2c1)C(=O)NCc1nnc(-c2ccccc2)o1 [Compound 50] | 564 nM | 267 nM
O=C(CCCCCCc1ccccc1)C(=O)NCc1nnc(-c2ccc(OCc3cccnc3)cc2)s1 [Compound 138] | 55 nM and 108 nM | 58 nM and 79 nM
O=C(CCCCCCc1ccccc1)C(=O)NCc1nnc(-c2ccc(Oc3ccccc3)cc2)s1 [Compound 130] | 111 nM | 80 nM
O=C(CCCCCCc1ccccc1)C(=O)NCc1nnc(-c2ccc3c(c2)OCO3)o1 [Compound 7] | 457 nM | –
O=C(CCCCCOc1cc(F)cc(F)c1)C(=O)NCc1nnc(-c2ccccc2)s1 [Compound 108] | 626 nM | 1170 nM
O=C(CCCCCCc1ccccc1)C(=O)NCc1nnc(-c2ccc(Oc3ccccc3)cc2)o1 [Compound 179] | 247 nM | 135 nM
O=C(CCCCCOc1ccccc1)C(=O)NCc1nnc(-c2ccc(Oc3ccccc3)cc2)o1 [Compound 52] | 2610 nM | 1800 nM
O=C(CCCCCOc1cccc(F)c1)C(=O)NCc1nnc(-c2ccc(Oc3cccc(Cl)c3)cc2)o1 [Compound 67] | 640 nM | 648 nM
COC(=O)c1cccc(COc2ccc(-c3nnc(CNC(=O)C(=O)CCCCCCc4ccccc4)o3)cc2)c1 [Compound 83] | 121 nM | 64 nM
O=C(CCCCCCc1ccccc1)C(=O)NCc1nnc(-c2cccc(Oc3ccccc3)c2)o1 [Compound 58] | 4890 nM | 1720 nM
COc1cccc(-c2nnc(CNC(=O)C(=O)CCCCCCc3ccccc3)o2)c1 [Compound 3] | 1100 nM | –
O=C(CCCCCOc1cc(F)ccc1F)C(=O)NCc1nnc(-c2ccc(Oc3ccccc3)cc2)o1 [Compound 98] | 1730 nM | 774 nM
O=C(CCCCCCc1ccccc1)C(=O)NCc1nnc(-c2ccc(OCc3ccccn3)cc2)s1 [Compound 139] | 71 nM | 42 nM
COC(=O)c1cccc(COc2ccc(-c3nnc(CNC(=O)C(=O)CCCCCCc4ccc(F)nc4)s3)cc2)c1 [Compound 170] | 16 nM | 14 nM
COc1ccc(-c2nnc(CNC(=O)C(=O)CCCCCCc3ccccc3)o2)cc1 [Compound 4] | 640 nM | –
O=C(CCCCCCc1ccccc1)C(=O)NCc1nnc(-c2cccnc2)o1 [Compound 177] | 5220 nM | –
O=C(CCCCCCc1ccccc1)C(=O)NCc1nnc(-c2ccccc2)[nH]1 [Compound 11] | 10400 nM | –
COc1ccccc1-c1nnc(CNC(=O)C(=O)CCCCCCc2ccccc2)o1 [Compound 6] | 2650 nM | –
O=C(CCCCCCc1ccccc1)C(=O)NCc1nnc(-c2ccccc2Cl)o1 [Compound 5] | 663 nM | –

Source: US8476302B2, “α-ketoamide derivatives useful endothelial lipase inhibitors” (Janssen Pharmaceutica N.V., priority 2010, dated 2013)
